In PMC5681660, “Reduced hepatitis B and D viral entry using clinically applied drugs as novel inhibitors of the bile acid transporter NTCP” (Scientific Reports, 2017):
Structures can show the parent of a compound that is named as a salt. Where two headings read alike, the source gives them in different places.

Key:
[1] = target: T1, human NTCP (Homo sapiens, UniProt Q14973); assay: Screening taurocholate uptake assay (96-well, [14C]taurocholate, 10 µM drug)
T1 sequence (Q14973 1-349): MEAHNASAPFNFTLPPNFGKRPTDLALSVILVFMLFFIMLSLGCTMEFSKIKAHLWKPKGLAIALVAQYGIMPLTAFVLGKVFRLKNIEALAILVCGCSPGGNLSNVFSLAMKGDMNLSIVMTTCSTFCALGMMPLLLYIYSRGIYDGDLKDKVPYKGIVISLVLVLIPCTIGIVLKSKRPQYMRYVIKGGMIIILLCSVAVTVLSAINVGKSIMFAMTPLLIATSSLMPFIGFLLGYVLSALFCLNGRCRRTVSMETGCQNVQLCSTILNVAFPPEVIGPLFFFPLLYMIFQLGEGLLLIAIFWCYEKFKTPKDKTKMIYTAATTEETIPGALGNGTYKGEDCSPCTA

[2] = target: T1, human NTCP; assay: Screening fluorescent competitive Myrcludex B-FITC binding assay (96-well, 10 µM drug)
[3] = Prestwick library screen, taurocholate uptake, 10 µM drug
[4] = ranking score beside the functional and binding assay B-scores of the screen
[5] = Prestwick library screen, Myrcludex B-FITC binding, 10 µM drug
[6] = Prestwick library screen, 10 µM drug, B-score of taurocholate uptake
[7] = combined ranking from functional and binding assay B-scores
[8] = Prestwick library screen, 10 µM drug, B-score of Myrcludex B-FITC binding
[9] = combined ranking from functional and binding screening assays
[10] = screen, 10 µM drug, taurocholate uptake
[11] = screen, 10 µM drug, Myrcludex B-FITC binding

| SMILES | B-score functional assay [1, 3] | Ranking score [1, 4] | B-score binding assay [2, 5] | B-score functional assay [1, 6] | Ranking score [1, 7] | B-score binding assay [2, 8] | further results |
| --- | --- | --- | --- | --- | --- | --- | --- |
| CC(C)Cn1cnc2c(N)nc3ccccc3c21 [Imiquimod] |  |  |  |  |  |  | B-score functional assay [1]: -0.019; Ranking score [1]: 554.076; B-score binding assay [2]: -0.174 |
| CN[C@@H]1C[C@@H](c2ccc(Cl)c(Cl)c2)c2ccccc21 [Indatraline hydrochloride] | 0.152 | 814.16 | 0.336 |  |  |  |  |
| CC(C)(C)NC(=O)[C@@H]1CN(Cc2cccnc2)CCN1C[C@@H](O)C[C@@H](Cc1ccccc1)C(=O)N[C@H]1c2ccccc2C[C@H]1O [Indinavir sulfate] | -0.197 | 710.601 | 1.008 |  |  |  |  |
| CC(C(=O)O)c1ccc(N2Cc3ccccc3C2=O)cc1 (stereo not drawn) [Indoprofen] |  |  |  | 0.788 | 897.998 | 0.209 |  |
| O=C(CCCCC(=O)Nc1c(I)cc(I)c(C(=O)O)c1I)Nc1c(I)cc(I)c(C(=O)O)c1I [Iodipamide] | 2.519 | 831.882 | -0.069 |  |  |  |  |
| CC(=O)N(CC(O)CO)c1c(I)c(C(=O)NCC(O)CO)c(I)c(C(=O)NCC(O)CO)c1I (stereo not drawn) [Iohexol] | 0.198 | 748.519 | 0.046 |  |  |  |  |
| CCC(Cc1c(I)cc(I)c(N)c1I)C(=O)O (stereo not drawn) [Iopanoic acid] |  |  |  |  |  |  | Ranking score [1, 9]: 395.161; B-score functional assay [1, 10]: -1.985; B-score binding assay [2, 11]: 1.953 |
| O=C(NCC(O)CO)c1c(I)c(C(=O)NCC(O)CO)c(I)c(N(CCO)C(=O)CO)c1I (stereo not drawn) [Ioversol] |  |  |  |  |  |  | B-score functional assay [1]: 1.843; Ranking score [1]: 1044.38; B-score binding assay [2]: 0.541 |
| CNC(=O)c1c(I)c(C(=O)NCC(=O)Nc2c(I)c(C(=O)O)c(I)c(C(=O)NCCO)c2I)c(I)c(N(C)C(C)=O)c1I [Ioxaglic acid] | -0.19 | 769.829 | 2.105 |  |  |  |  |
| O=C1c2ccccc2S(=O)(=O)N1CCCCN1CCN(c2ncccn2)CC1 [Ipsapirone] |  |  |  | 1.921 | 1093.42 | 0.854 |  |
| Nc1nc(N)nc(-c2cc(Cl)ccc2Cl)n1 [Irsogladine maleate] | 5.029 | 750.144 | -0.312 |  |  |  |  |
| Clc1ccc(C(Cn2ccnc2)OCc2c(Cl)cccc2Cl)c(Cl)c1 (stereo not drawn) [Isoconazole] |  |  |  | 0.797 | 1126.41 | 2.982 |  |
| CNC(C)CCC=C(C)C.CNC(C)CCC=C(C)C.O=C(O)[C@@H](O)[C@H](O)[C@H](O)[C@@H](O)C(=O)O [Isometheptene mucate] |  |  |  |  |  |  | Ranking score [1, 9]: 319.923; B-score functional assay [1, 10]: -0.726; B-score binding assay [2, 11]: -0.672 |
| NNC(=O)c1ccncc1 [Isoniazid] |  |  |  | 1.386 | 1117.92 | 1.337 |  |
| CC(C)[N+](C)(CCC(C(N)=O)(c1ccccc1)c1ccccc1)C(C)C [Isopropamide iodide] | 0.036 | 698.928 | 0.056 |  |  |  |  |
| O=[N+]([O-])O[C@H]1CO[C@H]2[C@@H]1OC[C@H]2O[N+](=O)[O-] [Isosorbide dinitrate] |  |  |  |  |  |  | B-score functional assay [1]: 2.183; Ranking score [1]: 973.944; B-score binding assay [2]: 0.166 |
| Cc1cc(NC(=O)C2=C(O)c3ccccc3S(=O)(=O)N2C)no1 [Isoxicam] |  |  |  | 1.391 | 933.01 | 0.145 |  |
| CC(COc1ccccc1)NC(C)C(O)c1ccc(O)cc1 (stereo not drawn) [Isoxsuprine hydrochloride] |  |  |  | 0.459 | 888.476 | 0.408 |  |
| CCC(C)n1ncn(-c2ccc(N3CCN(c4ccc(OCC5COC(Cn6cncn6)(c6ccc(Cl)cc6Cl)O5)cc4)CC3)cc2)c1=O (stereo not drawn) [Itraconazole] |  |  |  | 0.058 | 871.813 | 1.124 |  |
